Assay results reported in patent publication US7220822B2, “CD28 mimetics for blocking T cell mediated immune reactions” (The Ohio State University, priority 2000, dated 2007).
Square brackets hold non-standard residues; d marks the D form. Peptide text beside a SMILES is read from it.

What was measured:
[1] = test system: CD4+ LNC from Vα4/Vβ8.2 TCR transgenic mice; format: cell-based, mouse; conditions: CD4+ LNC and spleen cells, NAc 1-11 10 μg/ml, all concentrations used
Description: The in vitro effect of varying concentration of the CD 28 peptide mimetics on CD4+ lymph node cells and spleen cells from transgenic mice bearing the Vα 4 Vβ8.2 TCR specific for MBP Ac 1-11 was determined.
CD4+ T cells were purified from pooled peripheral lymph nodes (inguinal, axillary, brachial, cervical, popliteal), and mesenteric lymph nodes and spleen of 6–8 wk old Vα4/Vβ8.2 TCR transgenic mice by positive selection. Single cell suspensions were prepared by lympholyte M gradient, washed, counted and incubated with magnetic bead conjugated anti-mouse CD4 (L3T4) (Miltenyi Biotech Corporation) followed by positive selection using magnetic selection columns. Purity of the CD4^+ cells was greater than 90% as assessed by staining with FITC labeled anti-mouseVβ8.2 mAb (Pharmingen). During the selection process, T cells maintain a naïve phenotype with no evidence for T cell activation as measured by proliferation in culture. Purified CD4+ T-cells (5×10^4 cells/well) were cultured together with wild type splenocytes from B10.PL mice as APC's (10^5 cells/well) in RPMI 1640 containing 10% FCS, 25 mM HEPES, 2 mM L-glutamine, 50 U/ml penicillin, 50 μg/ml streptomycin, and 5×10–5 M 2-ME in round-bottom 96-well plates and MBP (40 μg/ml) or MBP NAc1-11 (10 μg/ml) or media only in the presence or absence of synthetic CD28 peptide analogues at different concentrations in triplicate wells for 72 h, including a final 18-h pulse with [^3H] thymidine. Cultures were harvested onto glass-fiber mats using a Skatron harvester (Skatron, Sterling, Va.) and were counted by liquid scintillation on LKB Betaplate (LKB, Rockville, Md.). The means of the triplicate were determined and the results are expressed as delta cpm (mean counts per minute of cultures with Ag-mean counts per minute of cultures with medium alone)±SD.

[2] = test system: B10.PL mice with EAE; assay: EAE in B10.PL mice immunized with GP-MBP in CFA, clinical score; format: in vivo, mouse; conditions: for mean maximal clinical score: single i.v. 500 μg on day 14 post-immunization (established EAE); for maximum disease incidence / maximum mean cumulative score per day: single i.v. 500 μg on the day of immunization
Description: Female B10.PL mice (6–8 wk old) were obtained from The Jackson laboratory (Bar Harbor, Me.) and housed at the Ohio State University, (Columbus, Ohio).
Mice were injected subcutaneously over four sites on the flank with an emulsion containing 200 μg of guinea-pig-MBP in CFA containing 200 μg heat killed Mycobacterium tuberculosis, Jamaica strain. Pertussis toxin (List Biological, Campbell, Calif.) at 150 ng in 0.2 ml of PBS was given intraperitoneally at the time of immunization and 48 hours later. Animals were observed daily for clinical signs and scored as follows: 1, limp tail or waddling gait with tail tonicity; 2, waddling gait with limp tail (ataxia); 2.5 ataxia with partial paralysis of one limb, 3, partial hind-limb paralysis, 3.5 full paralysis of one limb with partial paralysis of the second limb, 4, full paralysis of two limbs, 4.5 moribund and 5, death. All mice immunized with MBP (200 μg) in CFA developed clinical disease varying between ataxia and complete hind limb paralysis by day 14 post-immunization. They were then distributed randomly into six groups with mean clinical score of each group approximately the same.
Groups of mice were left untreated or injected intravenously with 500 μg of EL CD28 or RI CD28 peptide mimetics, or LCD28, RLCD28 and DCD28 peptides. The mean clinical score of untreated mice continued to increase reaching a maximum of 3.4 on day 20. Similarly the disease continued to progress in mice treated with LCD28, RLCD28 and DCD28, reaching mean maximal clinical score of 3.8 (day 18), 3.4 (day 16 ) and 3.7 (day 16) respectively.
The biological activity of synthetic CD28 peptide analogues during antigen priming in vivo in EAE was then shown. B10.PL mice immunized with GP-MBP (200 μg) in CFA were either left untreated or injected intravenously 500 μg of EL CD28 or RI CD28 peptide mimetics or LCD28, RLCD28 and DCD28 peptides on the day of immunization. The vehicle treated mice and mice treated with: LCD28, RL CD28 and D CD28 peptide had maximum disease incidence of 100%, 100%, 91.5% and 91.5% and maximum mean cumulative score per day of 1.9, 1.8, 1.7 and 2 respectively. […] The effect of RI CD28 peptide injection lasted for the duration of observation (37 days) in one experiment.

[3] = target: T1, CD80-Ig (Homo sapiens, UniProt P33681); assay: Direct kinetic analysis of CD28 peptide binding to immobilized CD80-Ig by surface plasmon resonance (BIACORE)
T1 construct: extracellular domain of CD80 fused with the constant region of mouse IgG1 heavy chain
Description: Binding experiments were performed by surface plasmon resonance (SPR) on an instrument sold under the trademark BIACORE™ from Pharmacia Biosensor (Uppasala, Sweden).
CD80-Ig (extracellular domain of CD80 fused with the constant region of mouse IgG1 heavy chain) at 35 μg/ml in 10 mM sodium acetate buffer, pH 4.2, was coupled to a research grade CM 5 sensor chip using a standard amine coupling procedure with the following modifications (38). To reduce the immobilization level of the ligand, the surface was activated for 3 (instead of 7) minutes with N-hydroxysuccinamide and […]. […] Following coupling, noncovalently bound ligand was removed by washing twice with 5 mM NaOH.
The analytes were also injected at the same concentration and injection times over an empty flow cell with nothing immobilized.
Data analysis was performed with BIAEVALUATION™ software version 2.1(Pharmacia Biosensor AB). […] Prior to kinetic analysis, data were adjusted to zero baseline level by subtracting the background responses obtained by injection of the analytes through a control flow cell with no ligand immobilized. First, the dissociation rate constant, kd, (units: s^−1) was determined, by fitting experimental data from the buffer flow part of the sensogram to the equation R(t)=R1*e^−kd*(t^0^−t^1^) (1) where t0 is the injection time, R1 is the response level at the start of dissociation time t1 and kd is the dissociation rate constant.
The kd value obtained was used as a constant during the analysis of the injection phase data. Binding data above the noise level was selected by converting the sensogram to a plot of the logarithm of the binding rate vs time (dR/dt vs. time). The ka was determined by nonlinear curve fitting of the following equation R(t)=Req*{1−e^−(k^a^*C+k^d^)*(t) (2) where R(t) is the response at time t, Req is the steady state response level, ka is the association rate constant (units: M^−1s^−1), kd is the dissociation rate constant and C is the concentration of the injected peptide analyte. An offset was added to account for the refractive index differences between the analyte and the running buffer.
After analyzing sensograms obtained from injections of increasing concentrations of peptide analytes or CD28-Ig, the experimental data was analyzed using the BIAsimulation software 2.1. A plot of the logarithm of (dR/dt) against time was calculated from the sensograms, and then the slopes at different concentrations were plotted against the concentrations of the peptide analyte. Different angles obtained of the linear lines represent the variation of affinities, which gives the association rate constant (ka) from the equation ln dR/dt=ln(kaCR max)−KaC+kd)t (4) where dR/dt is the rate of change of the SPR signal, C is the concentration of the analyte, Rmax is the maximum analyte binding capacity in RU and R is the SPR signal in RU at time t. The dissociation rate constant is obtained from the equation Kd=kd/ka (5)

[4] = test system: lymph node cells of MBP-primed mice; assay: IL-2 ELISPOT of draining lymph node cells from peptide-treated MBP-immunized mice; format: in vivo, mouse; conditions: mice treated on day 0 of immunization, ELISPOT on restimulation
Description: Ninety-six well unifilter plates (Polyfiltronics, Rockland, Md.) were coated overnight at 4° C. with rat anti-mouse IL-2 (Clone JES6-1A12) (Pharmingen, Calif.) at 4 μg/ml. The plates were then washed 4× with sterile PBS and blocked with 1% BSA in DMEM for 2 h at room temperature. Subsequently, isolated single cell suspensions of CD4+ LNC (5×10^6 cells/ml) and splenocytes (10×10^6 cells/ml) were added with the antigens and CD28 peptides under the conditions as specified for the proliferation assays. After 24 h of culture in the incubator, the cells were removed by washing 3× with PBS and 4× with PBS containing Tween (1:2000) (PBST). Then biotinylated anti mouse-IL-2 (Clone JES6-5H4) (Pharmingen, Calif.) 2 μg/ml was added and incubated at 4° C. overnight. After washing 3× with PBST and 3× with PBS, goat anti-biotin antibody conjugated to alkaline phosphatase (Vector Laboratories Inc, Burlingame, Calif.) diluted to 1:1000 in PBST containing 1% BSA was added and incubated for 2 h at room temperature. The spots were visualized by adding BCIP/NBT phosphatase substrate (Kirkeguard & Perry Laboratories, Gaithesburg, Md.). Image analysis of ELISA spot assays was performed on a Series 1 Immunospot Image Analyzer (Autoimmun Diagnostika (US) Inc.) customized for analyzing ELISA spots to meet objective criteria for size, chromatic density, shape and color.
MBP reactive T cells that induce EAE are known to display a Th1 phenotype secreting the proinflammatory cytokines IL-2, […] and TNF-β (36. Kay, B. K., M. P. Williamson, and M. Sudol. 2000. Faseb J 14, no. 2:231). ELISPOT assay was used to assess in vitro cytokine production by draining lymph node cells and splenocytes upon restimulation from in vivo MBP-primed T cells. Mice were treated as described in Example 3, on day 0 of immunization.

T1 sequence (P33681 35-242 limits assumed, other chains not shown): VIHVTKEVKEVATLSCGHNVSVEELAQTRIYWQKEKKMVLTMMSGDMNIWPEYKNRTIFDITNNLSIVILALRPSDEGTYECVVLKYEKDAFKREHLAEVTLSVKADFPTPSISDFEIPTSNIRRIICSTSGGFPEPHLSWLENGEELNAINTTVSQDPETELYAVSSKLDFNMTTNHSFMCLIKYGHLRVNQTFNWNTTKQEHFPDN

## CC[C@H](C)[C@H](NC(=O)[C@@H](NC(=O)CNC(=O)[C@H](CC(N)=O)NC(=O)[C@H](CO)NC(=O)[C@H](CCCNC(=N)N)NC(=O)[C@H](CCC(=O)O)NC(=O)[C@H](CC(N)=O)NC(=O)[C@H](CC(=O)O)NC(=O)[C@H](CC(C)C)NC(=O)[C@H](Cc1ccc(O)cc1)NC(=O)[C@@H]1CCCN1C(=O)[C@@H]1CCCN1C(=O)[C@@H]1CCCN1C(=O)[C@H](Cc1ccc(O)cc1)NC(=O)[C@H](CCSC)NC(=O)[C@H](Cc1ccccc1)NC(=O)[C@H](CCC(=O)O)NC(=O)[C@@H](NC(=O)[C@@H](N)CCCCN)[C@@H](C)CC)[C@@H](C)O)C(=O)O [L CD28, NH2KIEFMYPPPYLDNERSNGTICOOH] (H-KIEFMYPPPYLDNERSNGTI-OH)
[1]
  proliferative response / inhibition of T cell proliferation (in words): significantly less
[2]
  mean maximal clinical score: 3.8
  maximum disease incidence: 100%
  maximum mean cumulative score per day: 1.8
[3]; SPR direct binding
  maximum response units obtained for binding to CD80-Ig: 478 RU

## CH3COD[KIEFMYPPPYLDNERSNGTI]DCONH2 (Ac-[dK][dI][dE][dF][dM][dY][dP][dP][dP][dY][dL][dD][dN][dE][dR][dS][dN]G[dT][dI]-NH2) [D CD28, D-peptide (Control), reference compound]
[1]
  proliferative response / inhibition of T cell proliferation (in words): did not show inhibition
[2]
  mean maximal clinical score: 3.7
  maximum disease incidence: 91.5%
  maximum mean cumulative score per day: 2
[4]
  frequency of IL-2 secreting lymph node cells: 2675+/−14.2

## MYPPPY (listed as Homo sapiens) [hexapeptide, reference compound]
[1]
  proliferative response / inhibition of T cell proliferation (in words): did not show inhibition
[3]; data not shown
  binding to CD80-Ig (in words): did not bind

## CH3COL[ITGNSRENDLYPPPYMFEIK]LCONH2 (Ac-ITGNSRENDLYPPPYMFEIK-NH2) [RL CD28, Reverse-L-peptide (Control), reference compound]
[1]
  proliferative response / inhibition of T cell proliferation (in words): did not show inhibition
[2]
  mean maximal clinical score: 3.4
  maximum disease incidence: 91.5%
  maximum mean cumulative score per day: 1.7
[4]
  frequency of IL-2 secreting lymph node cells: 3386+/−23.3
